Experimental data reported in patent US11285135B2 (AMGEN INC., priority 2016, dated 2022).
Read-outs that look alike come from different tables or passages of the source.

Experiments:
[1] = target: GDP-bound protein (aa 1-169), containing both G12C and C118A amino acid substitutions (Homo sapiens, UniProt P01116, C118A/G12C); assay: Coupled Nucleotide Exchange Assay (SOS-mediated nucleotide exchange, AlphaScreen); assay type: biochemical; conditions: 2 hours compound pre-incubation
Method in brief: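 His-tagged GDP-bound […] (aa 1-169, G12C/C118A) pre-incubated 2 h with compound titration in 25 mM HEPES pH 7.4, 10 mM MgCl2, 0.01% Triton X-100.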

[2] = test system: Phosphorylation of ERK½ in MIA PaCa-2 cells; assay: Phospho-ERK½ MSD Assay in MIA PaCa-2 cells; assay type: cell-based; conditions: 4 hours compound treatment, 10 ng/mL EGF for 10 min, read-out: p-ERK IC50 (MIA PaCa-2)
Method in brief: (§1)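 MIA PaCa-2 or A549 cells (25,000/well, RPMI with 10% FBS) exposed to compound titration for 4 h at 37 °C, then stimulated with 10 ng/mL EGF for 10 min and lysed in RIPA. Phospho-ERK1/2 quantified by MSD whole-cell lysate immunoassay; IC50 from 4-parameter logistic fit.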

[3] = test system: Phosphorylation of ERK½ in A549 cells; assay: Phospho-ERK½ MSD Assay in A549 cells; assay type: cell-based; conditions: 4 hours compound treatment, 10 ng/mL EGF for 10 min, read-out: p-ERK IC50 (A549)
Method in brief: as §1

[4] = Homo sapiens, MIA PaCa-2, MIA PaCa-2 cells

GDP-bound protein (aa 1-169), containing both G12C and C118A amino acid substitutions, sequence (P01116 1-169 isoform P01116-2 G12C/C118A): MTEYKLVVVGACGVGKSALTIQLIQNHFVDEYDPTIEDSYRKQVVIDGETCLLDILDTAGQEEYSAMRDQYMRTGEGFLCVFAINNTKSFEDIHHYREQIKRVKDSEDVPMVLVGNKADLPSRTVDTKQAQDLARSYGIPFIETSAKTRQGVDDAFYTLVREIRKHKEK

Row | Structure (SMILES) | Coupled exchange IC50 [1] [µM] | IC50 [2, 4] [µM] | IC50 ([3]; Homo sapiens, A549, A549 cells) [µM] | IC50 ([2]; MIA PaCa-2 cells) [µM] | IC50 ([3]; A549 cells) [µM]
1 | C=CC(=O)N1CCN(c2nnc(-c3ccccc3)c3cc(-c4c(O)cccc4F)c(Cl)cc23)CC1 [Example 30, 2-(1-(4-Acryloyl-1-piperazinyl)-7-chloro-4-phenyl-6-phthalazinyl)-3-fluorophenol] | 7.51 | 58 | > 100 | – | –
2 | C=CC(=O)N1CCN(c2snc3c(F)c(-c4cc(OC)ccc4Cl)c(Cl)cc23)CC1 [Example 3-9, 1-(4-(5-chloro-6-(2-chloro-5-methoxyphenyl)-7-fluoro-2,1-benzothiazol-3-yl)-1-piperazinyl)-2-propen-1-one] | 3.37 | 9.25 | > 33.3 | – | –
3 | C=CC(=O)N1CCN(c2nnc(-c3ccccc3C3CC3)c3cc(-c4c(O)cccc4F)c(Cl)cc23)CC1 [Example 10-10, 1-(4-(7-chloro-4-(2-cyclopropylphenyl)-6-(2-fluoro-6-hydroxyphenyl)-1-phthalazinyl)-1-piperazinyl)-2-propen-1-one] | 0.359 | 6.85 | > 100 | – | –
4 | C=CC(=O)N1CCN(c2nc(=O)n(-c3cccc(C#N)c3)c3cc(-c4c(O)cccc4F)c(Cl)cc23)CC1 [Example 9-5, 3-(6-chloro-7-(2-fluoro-6-hydroxyphenyl)-2-oxo-4-(4-(2-propenoyl)-1-piperazinyl)-1(2H)-quinazolinyl)benzonitrile] | 1.33 | 3.92 | > 100 | – | –
5 | C=CC(=O)N1CCN(c2nc(=O)n(-c3ccccc3C(C)C)c3cc(-c4c(O)cccc4F)c(Cl)cc23)CC1 (single isomer, unassigned) [Example 8-1-1, 6-chloro-7-(2-fluoro-6-hydroxyphenyl)-1-(2-(2-propanyl)phenyl)-4-(4-(2-propenoyl)-1-piperazinyl)-2(1H)-quinazolinone] | 0.172 | – | – | 0.046 | 69.8
6 | C=C(CBr)C(=O)N1CCN(c2snc3c(F)c(-c4cc(O)cc5ccccc45)c(Cl)cc23)CC1 [Example 18-2, 2-(Bromomethyl)-1-(4-(5-chloro-7-fluoro-6-(3-hydroxy-1-naphthalenyl)-2,1-benzothiazol-3-yl)-1-piperazinyl)-2-propen-1-one] | 0.760 | > 100 | > 100 | – | –
7 | C=CC(=O)N1CCN(c2snc3c(F)c(-c4cc(O)cc5ccccc45)c(Cl)cc23)C[C@@H]1C [Example 5-4, 1-((2S)-4-(5-chloro-7-fluoro-6-(3-hydroxy-1-naphthalenyl)-2,1-benzothiazol-3-yl)-2-methyl-1-piperazinyl)-2-propen-1-one] | 0.610 | 3.25 | > 100 | – | –
8 | C=CC(=O)N1CC[C@H]2[C@@H]1CN2c1snc2c(F)c(-c3cc(O)cc4ccccc34)c(Cl)cc12 [Example 5-6, 1-((1S,5S)-6-(5-chloro-7-fluoro-6-(3-hydroxy-1-naphthalenyl)-2,1-benzothiazol-3-yl)-2,6-diazabicyclo[3.2.0]heptan-2-yl)-2-propen-1-one] | 0.883 | 5.9 | > 100 | – | –
9 | C=CC(=O)N1CCN(c2nc(=O)n(-c3ccccc3C(C)C)c3cc(-c4c(O)cccc4F)c(Cl)cc23)[C@@H](C)C1 (single isomer, unassigned) [Example 8-3-1] | 0.282 | – | > 100 | 0.408 | –
10 | C=CC(=O)N1C[C@@H](C)N(c2snc3c(F)c(-c4cc(O)cc5ccccc45)c(Cl)cc23)[C@H](C)C1 (racemic) [Example 2-7, 1-(4-(5-chloro-7-fluoro-6-(3-hydroxy-1-naphthalenyl)-2,1-benzothiazol-3-yl)-3,5-dimethyl-1-piperazinyl)-2-propen-1-one] | 1.08 | 3.87 | > 33.3 | – | –
11 | C=CC(=O)N1CCN(c2nc(=O)n(-c3c(CC)cccc3CC)c3nc(-c4c(O)cccc4F)c(Cl)cc23)[C@@H](C)C1 [Example 8-4, 6-chloro-1-(2,6-diethylphenyl)-7-(2-fluoro-6-hydroxyphenyl)-4-((2S)-2-methyl-4-(2 propenoyl)-1-piperazinyl)pyrido[2,3-d]pyrimidin-2(1H)-one] | 0.095 | 0.017 | > 33.3 | – | –
12 | C=CC(=O)N1CCN(c2snc3c(F)c(-c4cc(O)cc5ccccc45)c(Cl)cc23)[C@@H](C(F)F)C1 (racemic) [Example 7-1] | 0.299 | 0.43 | > 100 | – | –
13 | C=CC(=O)N1CCN(c2snc3c(F)c(-c4cc(N)cc(F)c4F)c(Cl)cc23)CC1 [Example 3-15, 1-(4-(6-(5-amino-2,3-difluorophenyl)-5-chloro-7-fluoro-2,1-benzothiazol-3-yl)-1-piperazinyl)-2-propen-1-one] | 4.03 | 20.1 | > 100 | – | –
14 | C=CC(=O)N1CCN(c2nnc(-c3cnccc3C)c3cc(-c4c(O)cccc4F)c(Cl)cc23)CC1 [Example 10-6, 1-(4-(7-chloro-6-(2-fluoro-6-hydroxyphenyl)-4-(4-methyl-3-pyridinyl)-1-phthalazinyl)-1-piperazinyl)-2-propen-1-one] | 1.20 | 6.07 | > 100 | – | –
15 | C=CC(=O)N1CCN(c2nc(=O)n(-c3ccccc3C(C)C)c3nc(-c4c(O)cccc4F)c(Cl)cc23)[C@@H](C)C1 (single isomer, unassigned) [Example 8-6-1] | 0.066 | – | – | 0.01 | > 33.3
16 | C=CC(=O)NC1CN(c2snc3c(F)c(-c4cc(O)cc5ccccc45)c(Cl)cc23)C1 [Example 4-6, N-(1-(5-chloro-7-fluoro-6-(3-hydroxy-1-naphthalenyl)-2,1-benzothiazol-3-yl)-3-azetidinyl)-2-propenamide] | 0.630 | 10.3 | > 100 | – | –
17 | C=CC(=O)N1CCN(c2snc3c(F)c(-c4c(C)ccc5[nH]ncc45)c(Cl)cc23)[C@H](C(F)F)C1 (racemic) [Example 2-8, 1-(4-(5-chloro-7-fluoro-6-(5-methyl-1H-indazol-4-yl)-2,1-benzothiazol-3-yl)-3-(difluoromethyl)-1-piperazinyl)-2-propen-1-one] | 0.361 | 0.258 | > 100 | – | –
18 | C=CC(=O)N1CCN(c2snc3nc(-c4cc(O)cc5ccccc45)c(Cl)cc23)C(C)C1 (single isomer, unassigned) [Example 2-5-2, 1-((3R)-4-(5-chloro-6-(3-hydroxy-1-naphthalenyl) [1,2]thiazolo[3,4-b]pyridin-3-yl)-3-methyl-1-piperazinyl)-2-propen-1-one or 1-((3S)-4-(5-ch1oro-6-(3-hydroxy-1-naphthalenyl) [1,2]thiazolo[3,4-b]pyridin-3-yl)-3-methyl-1-piperazinyl)-2-propen-1-one] | 1.35 | – | – | 7.48 | 3.7
19 | C=CC(=O)N1CCN(c2nc(=O)n(-c3ccccc3C(C)C)c3nc(-c4c(O)cccc4F)c(Cl)cc23)[C@@H](C)C1 [Example 8-6, 6-chloro-7-(2-fluoro-6-hydroxyphenyl)-4-((2S)-2-methyl-4-(2-propenoyl)-1-piperazinyl)-1-(2-(2-propanyl)phenyl)pyrido[2,3-d]pyrimidin-2(1H)-one] | 0.100 | – | – | 0.012 | 69.9
20 | C=CC(=O)N1CCN(c2snc3c(F)c(-c4cc(O)cc5ccccc45)c(Cl)cc23)CC1 [Example 3-1, 1-(4-(5-Chloro-7-fluoro-6-(3-hydroxynaphthalen-1-yl)benzo[c]isothiazol-3-yl)piperazin-1-yl)prop-2-en-1-one] | 0.266 | – | > 100 | 3.23 | –
21 | C=CC(=O)N1CCN(c2snc3nc(-c4c(O)cccc4F)c(Cl)cc23)[C@@H](C)C1 (racemic) [Example 2-3, 1-(4-(5-chloro-6-(2-fluoro-6-hydroxyphenyl)[1,2]thiazo[3,4-b]pyridin-3-yl)-3-methyl-1-piperazinyl)-2-propen-1-one] | 4.05 | 6.53 | > 100 | – | –
22 | C=CC(=O)N1CCN(c2snc3c(F)c(-c4nc(N)ccc4Cl)c(Cl)cc23)CC1 [Example 6-1, 1-(4-(6-(6-Amino-3-chloro-2-pyridinyl)-5-chloro-7-fluoro-2,1-benzothiazol-3-yl)-1-piperazinyl)-2-propen-1-one] | 0.537 | 1.3 | 3.7 | – | –
23 | C=CC(=O)N1CCN(c2snc3c(F)c(-c4c(C)ccc5[nH]ncc45)c(Cl)cc23)[C@@H](C)C1 [Example 1-10, 1-((3S)-4-(5-chloro-7-fluoro-6-(5-methyl-1H-indazol-4-yl)-2,1-benzothiazol-3-yl)-3-methyl-1-piperazinyl)-2-propen-1-one] | 0.381 | 1.09 | 11.1 | – | –
